The test system of one data set is Hep-2 (human). As to the kind of experiment: Cytotoxicity against human Hep-2 cells. The settings on record: for EC50: read-out: ED50 (the source's name).
The subject of data set [1] is Human immunodeficiency virus 1. As to the kind of experiment: Antiviral activity against HIV1 infected in human H9 cells after 4 days by p24 antigen ELISA. Format: functional, organism-based. The settings on record: Human immunodeficiency virus 1, H9, 96 h. In general terms: In an ELISA, binding on a coated surface is turned into a signal by an enzyme label.
The nature of data set [2]: Therapeutic index, ratio of IC50 for human H9 cells to EC50 for HIV1. Format: cell-based. The settings on record: read-out: TI.
Data set [3] has as its system Human immunodeficiency virus 1. As to the kind of experiment: Anti-HIV-1 activity in human H9 cells. The settings on record: H9, 96 h.
A short description of data set [4]: Inhibition of tubulin polymerization.
Data set [5] has as its system KB. As to the kind of experiment: Cytotoxicity against human KB cells. The format is functional, cell-based.
Data set [6] can be described thus: Cytotoxicity against human KB-7d cells expressing multidrug-resistant protein. The format is functional, cell-based. The settings on record: KB7D.
Data set [7] in a line: Cytotoxicity against vincristine-resistant human KB/VCR cells overexpressing P-glycoprotein. Format: functional, cell-based.
Data set [8] deals with KB. As to the kind of experiment: Cytotoxicity against CPT-resistant human KB cells […] reduced level of topoisomerase. Format: functional, cell-based.
Data set [9] in a line: Antitumor activity against rat Walker 256 cells allografted in rat at 2.5 mg/kg relative to control. Format: functional.
Another data set relates to P388. As to the kind of experiment: Antitumor activity against mouse P388 cells allografted in mouse at 8 mg/kg relative to control. The format is functional.
Another data set deals with H9. As to the kind of experiment: Cytotoxicity against human H9 cells after 4 days by coulter counter. Format: cell-based. The settings on record: Homo sapiens, H9, 96 h.
The subject of data set [10] is Human immunodeficiency virus 1. As to the kind of experiment: Antiviral activity against HIV1 3B infected in H9 cells assessed as inhibition of viral replication by p24 antigen ELISA. Format: functional, organism-based. The settings on record: Human immunodeficiency virus 1, 3B, H9; read-out: EC50.
Data set [11] in a line: Therapeutic index, ratio of IC50 for human H9 cells to EC50 for HIV 3B. The format is cell-based. The settings on record: read-out: TI.
Data set [12] concerns Human immunodeficiency virus 1. As to the kind of experiment: Antiviral activity against multidrug-resistant HIV1 RTMDR1 infected in H9 cells assessed as inhibition of viral replication by p24 antigen ELISA. The format is functional, organism-based. The settings on record: Human immunodeficiency virus 1, RTMDR1, H9.
Data set [13] is described as follows: Therapeutic index, ratio of IC50 for human H9 cells to EC50 for multidrug-resistant HIV1 RTMDR1. Format: cell-based. The settings on record: read-out: TI.
For a further data set, the system named is Tubulin. As to the kind of experiment: Inhibition of tubulin polymerization.

SMILES strings stand for the structures. Values after ≈ are worked out from the molar mass of the structure shown. Active and inactive are the calls of the source. The rule behind the calls is not given here.

Take `C[C@@H]1C[C@H]2OC(=O)[C@@H](C)[C@H]2[C@H](O)[C@]2(C)C(=O)CC[C@@H]12`: the ED50 entry with Hep-2 (human) was “inactive”.
As to `C=C(C)[C@@H]1CC[C@]2(C(=O)O)CC[C@]3(C)[C@H](CC[C@@H]4[C@@]5(C)CC[C@H](OC(=O)CCC(=O)O)C(C)(C)[C@@H]5CC[C@]43C)[C@@H]12`, in data set [1], half-maximal inhibition (IC50) was put at 16000 nM. In addition, the selectivity ratio in [2] is 4. In [3], this compound had an EC50 of 4000 nM.
Consider `C=C(C)[C@@H]1CC[C@]2(C(=O)O)CC[C@]3(C)[C@H](CC[C@@H]4[C@@]5(C)CC[C@H](OC(=O)/C=C/C)C(C)(C)[C@@H]5CC[C@]43C)[C@@H]12`, for which half-maximal inhibition in data set [1] (IC50) required 48000 nM. For the same compound, in data set [3], the EC50 worked out at 19000 nM.
For the compound `COc1ccc2c(c1)C(O)CCc1cc(OC)c(OC)c(OC)c1-2` (configuration not stated), in data set [4], it took 2000 nM to reach half-maximal inhibition (IC50). The EC50 with KB [5] worked out at 0.02 µg/mL (≈ 0.0605 µM); in [6], 0.013 µg/mL (≈ 0.0393 µM); in data set [7], 0.013 µg/mL (≈ 0.0393 µM); in the data set with KB [8], 0.022 µg/mL (≈ 0.0666 µM).
For the compound `C=C1C(=O)O[C@@H]2C[C@@H](C)[C@@H]3C=CC(=O)[C@@]3(C)[C@@H](O)[C@H]12` [HELENALIN], the T/C – broadly, the ratio of treated to control – in [9] is 316%; in the data set with P388, 162%. Besides, the EC50 in the data set on Hep-2 (human) was found to be 0.08 µg/mL (≈ 0.305 µM).
Regarding `CC(C)c1cc(=O)c2ccc3c(c2o1)[C@@H](OC(=O)C12CCC(C)(C(=O)O1)C2(C)C)[C@@H](OC(=O)C12CCC(C)(C(=O)O1)C2(C)C)C(C)(C)O3` (some centres not stated), the midpoint of inhibition in the data set with H9, the IC50, lay at 15000 nM. Moreover, the EC50 stood at 70 nM in data set [10] and 140 nM in data set [12]. Moreover, the selectivity ratio in [11] was 483; in data set [13], more than 111.
As to `COc1ccc2c(c1)C(=O)CCc1cc(OC)c(OC)c(OC)c1-2`, the IC50 (in general, the concentration at which inhibition is half-maximal) in data set [4] worked out at 1000 nM. Moreover, the EC50 with KB [5] was 0.057 µg/mL (≈ 0.174 µM); in [6] it was 0.025 µg/mL (≈ 0.0761 µM); in data set [7] it was more than 0.063 µg/mL; in the data set on KB [8] it was 0.052 µg/mL (≈ 0.158 µM).
Consider `C=C(C)[C@@H]1CC[C@]2(C(=O)O)CC[C@]3(C)[C@H](CC[C@@H]4[C@@]5(C)CC[C@H](OC(=O)CC(C)(C)C(=O)O)C(C)(C)[C@@H]5CC[C@]43C)[C@@H]12` [BEVIRIMAT], for which the selectivity ratio in data set [2] was found to be 20000. Besides, the EC50 in data set [3] is 0.35 nM.
On to `C[C@@H]1C[C@H]2OC(=O)[C@@H](C)[C@H]2[C@H](O)[C@]2(C)C(=O)C=C[C@@H]12`, for which the EC50 with Hep-2 (human) was determined as 0.8 µg/mL (≈ 3.03 µM).
As for `C=C(C)[C@@H]1CC[C@]2(C(=O)O)CC[C@]3(C)[C@H](CC[C@@H]4[C@@]5(C)CC[C@H](OC(=O)CC(C)(C)CC(=O)O)C(C)(C)[C@@H]5CC[C@]43C)[C@@H]12`, the IC50 in data set [1] worked out at 4500 nM. In data set [2], the selectivity ratio worked out at 2000. In data set [3], the EC50 was determined as 3 nM.
In the case of `C=C(C)[C@@H]1CC[C@]2(C(=O)O)CC[C@]3(C)[C@H](CC[C@@H]4[C@@]5(C)CC[C@H](OC(=O)COCC(=O)O)C(C)(C)[C@@H]5CC[C@]43C)[C@@H]12`, in data set [1], the IC50 came out at 11700 nM. The selectivity ratio in data set [2] was 1170.
In the data set with H9, `CCCc1cc(=O)c2ccc3c(c2o1)[C@@H](OC(=O)C12CCC(C)(C(=O)O1)C2(C)C)[C@@H](OC(=O)C12CCC(C)(C(=O)O1)C2(C)C)C(C)(C)O3` (some centres not stated) registered a half-inhibitory concentration (IC50) of more than 37700 nM. Besides, the EC50 in data set [10] worked out at 20 nM; in data set [12], 140 nM. Besides, the selectivity ratio in [11] was 1860; in data set [13] it was more than 272.
Regarding `Cc1cnc2[nH]c(-c3cccc(F)c3)cc(=O)c2c1`, 630 nM corresponded to half-maximal inhibition in the data set with Tubulin (IC50).
Turning to `Cc1cnc2nc(-c3cccc4ccccc34)cc(O)c2c1`, 550 nM corresponded to half-maximal inhibition with Tubulin (IC50).
In [9], `C=C1C(=O)O[C@@H]2C[C@@H](C)[C@@H]3[C@@H]4CC(=O)[C@@]3(C[C@H]12)[C@@]1(C4)C(=O)O[C@@H]2C[C@@H](C)[C@@H]3C=CC(=O)[C@@]3(C)[C@@H](O)[C@@H]21` [MICROLENIN] showed a T/C of 173%.
In turn, `C=C(C)[C@@H]1CC[C@]2(C(=O)O)CC[C@]3(C)[C@H](CC[C@@H]4[C@@]5(C)CC[C@H](OC(=O)C(C)(C)CC(=O)O)C(C)(C)[C@@H]5CC[C@]43C)[C@@H]12` came in with an IC50 in data set [1] of 15900 nM. In addition, the selectivity ratio in data set [2] is 6.7.
